Measurements: paper PMC12604929, “Tumor-specific cytotoxicity of pyrazole-based chalcone derivatives in human oral squamous cell carcinoma cell lines” (Turkish Journal of Biology, 2025)
Numbered stars: 1 amine (or outer) side, 2 acyl side, 3 side chain; on linkers, the order of the positions; unused ones are H or OH. Bridge positions count the residues as written; N and C are the ends. Square brackets hold non-standard residues; d marks the D form. Peptide text beside a SMILES is read from it. I, II: the chains in the order shown. Actinocin(9to1) = Cc1c2oc3c(C)ccc(C(=O)[*:1])c3nc-2c(C(=O)[*:2])c(N)c1=O; NMeV = CN[C@H](C(=O)O)C(C)C; Sar = CNCC(=O)O

What was measured:
[1] = system: Ca9-22 cells (OSCC, gingival tissue); experiment: MTT cytotoxicity assay, Ca9-22; type: cell-based, human; settings: for TS (C/A) tumor-selectivity index: CC50 HGF / CC50 Ca9-22 (both gingival); for PSE (C/A^2)x100 potency-selectivity expression: HGF vs Ca9-22 (both gingival); for CC50: Homo sapiens, Ca9-22, OSCC, 48 h, MTT, average of three determinations
Protocol: (§2) The viable cell number was determined in triplicate by the MTT method, following the approach adopted in previous studies ([Nagai et al., 2018]; [Shi et al., 2018] ). Briefly, the cells were incubated for 2 h with 0.2 mg/mL of MTT, and the formed formazan was dissolved with 0.1 mL of DMSO to determine the relative viable cell number at 560 nm.
(§3) Cells were inoculated at 2×10^3 cells/0.1 ml in a 96-microwell plate. […] Cells were incubated further for 48 h and the relative viable cell number was then determined by the MTT method and expressed as the absorbance of the cell lysate at 560 nm, using a microplate reader (Infinite F50R; TECAN, Männedorf, Switzerland) [49, 50]. Control cells were treated with the same amounts of DMSO and the cell damage induced by DMSO was subtracted from that induced by test agents. The concentration of compound that reduced the viable cell number by 50% (CC50) was determined from the dose–response curve and the mean value of CC50 for each cell type was calculated from triplicate assays.
(§4) Human oral squamous cell carcinoma (OSCC) cell lines [Ca9-22 (derived from gingival tissue); and HSC-2, HSC-3, HSC-4 (derived from tongue)] were purchased from Riken Cell Bank (Tsukuba, Japan). All of these cells were cultured at 37°C in DMEM supplemented with 10% heat-inactivated fetal bovine serum, 100 units/ml, penicillin G and 100 µg/ml streptomycin sulfate under a humidified 5% CO2 atmosphere. Cell morphology was checked periodically under a light microscope (EVOS FL; Thermo Fisher Scientific, Waltham, MA, USA).

[2] = system: human OSCC cell lines (Ca9-22, HSC-2, HSC-3, HSC-4); experiment: MTT cytotoxicity, four OSCC cell lines together (mean, TS, PSE, type of growth inhibition); type: cell-based; settings: for type of growth inhibition on the OSCC cell lines: from dose-response curves, Figure 4, cytostatic = without complete cytotoxicity, cytotoxic = complete cell death; for TS (D/B) tumor-selectivity index: mean CC50 normal cells / mean CC50 OSCC cell lines; for CC50: Homo sapiens, mean of Ca9-22, HSC-2, HSC-3, HSC-4, read-out: CC50 OSCC mean (B)
Protocol: TS was calculated using the following equation: TS=mean CC50 against three normal oral cell types/mean CC50 against four OSCC cell lines (HGF, HPLF, HPC vs. Ca9-22, HSC-2, HSC-3, HSC-4). Since both Ca9-22 and HGF cells were derived from the gingival tissue, the relative sensitivity of these cells was also compared (as: CC50 against HGF/ CC50 against Ca9-22).
PSE was calculated by the following equation: PSE=mean CC50 against three normal oral cell types/(CC50 against four OSCC cell lines)2 × 100 (HGF, HPLF, HPC vs. Ca9-22, HSC-2, HSC-3, HSC-4); and as CC50 against HGF/(CC50 against Ca9-22)2 × 100 using the pair of cell types from the same tissue (gingiva) (see Table 1).
(§1) Estimation of CC50 values. […] The mean pCC50 values for normal cells and tumor cell lines were defined as N and T, respectively.

[3] = system: HSC-2 cells; experiment: Cell-cycle analysis (propidium iodide, cell sorting); type: cell-based, human; settings: HSC-2, 24 h, 1 μM; control 1.9 %
Protocol: Cell-cycle analysis was performed following the process described in the literature ([Kantoh et al., 2010]; [Nagai et al., 2018]; [Shi et al., 2018]), details of which are presented in a supplementary file. Briefly, cells (approximately 10^6 in number) were fixed with paraformaldehyde in PBS(−) and treated with RNase A. After staining with propidium iodide in the presence of 0.01% Nonidet-40 to prevent cell aggregation, the cells were filtered through Falcon cell strainers and then subjected to cell sorting, analyzed with Cell Sorter Software (version 2.1.2) (SONY Imaging Products and Solution Inc., Kanagawa, Japan).
HSC-2 cells were incubated for 24 h with actinomycin D (Act.D) (positive control of apoptosis induction) or MS4, 7, or 8, or without treatment (control), and subjected to cell cycle analysis. […] D (1 μM) (p < 0.05) from 1.9 % to 12.5%. […] The cell cycle analysis was performed only with HSC-2 cells; therefore, experiments with other OSCC cell lines should be conducted to support the generalization of our findings.
Treated and untreated cells (approximately 10^6 cells) were harvested, fixed with 1% paraformaldehyde in PBS without calcium and magnesium ions [PBS(−)]. Fixed cells were then washed twice with PBS(−) and treated for 30 min with 400 μl of 0.2 mg/ml RNase A (preheated for 10 min at 100 °C to inactivate DNase) to degrade RNA. Cells were then washed twice with PBS(−) and stained for 15 min with 0.01% propidium iodide (PI) in the presence of 0.01% NP-40 in PBS(−) to prevent cell aggregation. After filtering through Falcon® cell strainers ([…]) (Corning, NY, USA) to remove aggregated cells, PI-stained cells were subjected to cell sorting (SH800 Series; SONY Imaging Products and Solutions Inc., Kanagawa, Japan). Cell-cycle analysis was performed with Cell Sorter Software version 2.1.2. (SONY Imaging Products and Solution Inc.).

[4] = MTT cytotoxicity assay, HPC; type: cell-based, human; settings: female, human, human pulp cells (HPC), normal oral cells, average of three determinations
Protocol: as §2, §3
(§5) All of these cells were cultured at 37°C in DMEM supplemented with 10% heat-inactivated fetal bovine serum, 100 units/ml, penicillin G and 100 µg/ml streptomycin sulfate under a humidified 5% CO2 atmosphere.

[5] = MTT cytotoxicity assay, HPLF; type: cell-based, human; settings: female, human, normal oral cells, average of three determinations
Protocol: as §2, §3, §5

[6] = MTT cytotoxicity assay, HGF; type: cell-based, human; settings: human, human gingival fibroblasts (HGF), normal oral cells, average of three determinations
Protocol: as §2, §3, §4

[7] = system: HSC-4 cells (OSCC, tongue); experiment: MTT cytotoxicity assay, HSC-4; type: cell-based, human; settings: Homo sapiens, HSC-4, 48 h, average of three determinations
Protocol: as §2, §3, §4

[8] = system: HSC-2 cells (OSCC, tongue); experiment: MTT cytotoxicity assay, HSC-2; settings: Homo sapiens, HSC-2, 48 h, read-out: CC50 HSC-2
Protocol: as §2, §3, §4

[9] = system: HSC-3 cells (OSCC, tongue); experiment: MTT cytotoxicity assay, HSC-3; type: cell-based, human; settings: for CC50: Homo sapiens, HSC-3, OSCC, 48 h, MTT, average of three determinations
Protocol: as §2, §3, §4

[10] = MTT cytotoxicity, three normal oral cell types together (mean); type: cell-based, human; settings: female, human; mean of HGF, HPLF, HPC; read-out: CC50 normal oral cells mean (D)
Text: as §1

Row | SMILES | TS (C/A) tumor-selectivity index [1] | type of growth inhibition on the OSCC cell lines [2] | TS (D/B) tumor-selectivity index [2] | subG1 cell population [3] [%] | CC50 at 48 h [4] [µM] | PSE (C/A^2)x100 potency-selectivity expression [1] | CC50 [1] [µM] | CC50 at 48 h [5] [µM] | CC50 [2] [µM] | CC50 at 48 h [6] [µM] | CC50 [7] [µM] | CC50 [8] [µM] | CC50 [9] [µM] | CC50 at 48 h [10] [µM] | increase of cytotoxicity against HSC-3 compared to MS4 ([9]; relative to unsubstituted phenyl derivative MS4)
1 | O=c1[nH]cc(F)c(=O)[nH]1 [Compound 5-FU, 5-fluorouracil, reference compound] | > 30.3 | cytostatic effects | > 28.6 | – | – | – | – | – | – | – | – | – | – | – | –
2 | Cc1c2oc3c(C)ccc(C(=O)N[C@@H]4C(=O)N[C@H](C(C)C)C(=O)N5CCC[C@H]5C(=O)N(C)CC(=O)N(C)[C@@H](C(C)C)C(=O)O[C@@H]4C)c3nc-2c(C(=O)N[C@@H]2C(=O)N[C@H](C(C)C)C(=O)N3CCC[C@H]3C(=O)N(C)CC(=O)N(C)[C@@H](C(C)C)C(=O)O[C@@H]2C)c(N)c1=O [Act.D, actinomycin D, reference compound] (I: T[dV]P[Sar][NMeV] / II: T[dV]P[Sar][NMeV]; ester I:1-I:C, II:1-II:C; linker I:N-II:N via Actinocin(9to1)) | – | – | – | 12.5 | – | – | – | – | – | – | – | – | – | – | –
3 | NS(=O)(=O)c1ccc(-n2cc(/C=C/C(=O)c3cccs3)c(-c3ccccc3)n2)cc1 [MS10, (E)-4-(4-(3-Oxo-3-(thiophen-2-yl)prop-1-en-1-yl)-3-phenyl-1H-pyrazol-1-yl)benzenesulfonamide] | 26.4 | mixed effects | 25.9 | – | 6.7 | 4191 | 0.63 | 121 | 1.86 | 16.6 | 1.78 | 0.38 | 4.63 | 48 | –
4 | COc1cccc2c1C(=O)c1c(O)c3c(c(O)c1C2=O)C[C@@](O)(C(=O)CO)C[C@@H]3O[C@H]1C[C@H](N)[C@H](O)[C@H](C)O1 [DXR, doxorubicin, reference compound] | >45.5 | cytotoxic effects | >54.9 | – | 9.2 | – | 0.22 | > 10 | 0.18 | > 10 | 0.09 | 0.12 | 0.29 | > 9.7 | –
5 | NS(=O)(=O)c1ccc(-n2cc(C=O)c(-c3ccccc3)n2)cc1 [MS3, 4-(4-formyl-3-phenyl-1H-pyrazol-1-yl) benzenesulfonamide] | 7.8 | cytotoxic effects | 4.7 | – | 221 | – | 32.3 | 217 | 48.6 | 253 | 46.3 | 64 | 51.7 | 230 | –
6 | COc1ccc(C(=O)/C=C/c2cn(-c3ccc(S(N)(=O)=O)cc3)nc2-c2ccccc2)cc1 [MS6, (E)-4-(4-(3-(4-Methoxyphenyl)-3-oxoprop-1-en-1-yl)-3-phenyl-1H-pyrazol-1-yl)benzenesulfonamide] | 66.5 | cytotoxic effects | 33.9 | – | 51.9 | 2115 | 3.1 | 99.7 | 3.5 | 209 | 3.3 | 4.1 | 3.6 | 120 | 1.5–2 times
7 | C/C(=N\Nc1ccc(S(N)(=O)=O)cc1)c1ccccc1 [MS1, (E)-4-(2-(1-phenylethylidene)hydrazinyl)benzenesulfonamide] | 2.5 | cytostatic effects | 4.5 | – | 51 | – | 20 | 246 | 25.9 | 50.7 | 15.7 | 14.3 | 53.7 | 116 | –
8 | CN(C)C=NS(=O)(=O)c1ccc(-n2cc(C=O)c(-c3ccccc3)n2)cc1 [MS2] | 7.1 | cytotoxic effects | 4.5 | – | 214 | – | 34.3 | 262 | 53.3 | 245 | 63 | 41.3 | 74.3 | 241 | –
9 | Cc1ccc(C(=O)/C=C/c2cn(-c3ccc(S(N)(=O)=O)cc3)nc2-c2ccccc2)cc1 [MS5, (E)-4-(4-(3-Oxo-3-(p-tolyl)prop-1-en-1-yl)-3-phenyl-1H-pyrazol-1-yl)benzenesulfonamide] | 88.8 | cytostatic effects | >19.1 | – | 30.3 | 5426 | 1.6 | > 400 | 10.1 | 145 | 3.1 | 0.9 | 34.7 | > 192 | –
10 | COc1ccc(C(=O)/C=C/c2cn(-c3ccc(S(N)(=O)=O)cc3)nc2-c2ccccc2)cc1OC [MS9, (E)-4-(4-(3-(3,4-Dimethoxyphenyl)-3-oxoprop-1-en-1-yl)-3-phenyl-1H-pyrazol-1-yl)benzenesulfonamide] | >40.1 | mixed effects | >9.0 | – | > 400 | – | 10 | > 400 | 44.6 | > 400 | 83 | 50.3 | 35 | > 400 | –
